Measured values taken from patent US20190175528A1, “INHIBITION OF BIOFILM ORGANISMS” (NovaBiotics Limited, priority 2009, published 2019).
Ends that are not written are not given here.

What was measured:
[1] = system: Staphylococcus spp (4) biofilm cells; assay type: cell-based
Experimental: (§1) The FIC was also calculated to assess the interaction of two antimicrobial agents in combination against bacterial biofilms. The same formulae applied, using MBEC instead of MIC.
(§2) A total volume of 100 μl bacterial inoculum in Mueller-Hinton was added to each well of 96-well plates (challenge plates) and the plates were incubated at 37° C. for 24 h on a gyrorotary shaking platform (Grant-bio PS-3D, Shepreth, England) at 24 rpm to allow for biofilm formation.
(§3) The challenge plates were then rinsed once with sterile PBS (lx) and two-fold serial dilutions of antimicrobial agents in Mueller-Hinton were added to the challenge plates. The challenge plates were incubated at 37° C. for 24 h on a gyrorotary shaking platform (Grant-bio PS-3D, Shepreth, England) at 24 rpm.
(§4) The supernatants from each of the challenge plates were transferred into fresh plates and the optical density was measured at 625 nm on a microtitre plate reader (BioTek Powerwave XS, Winooski, USA). The MBEC was obtained by the lowest concentration of antimicrobial showing no bacterial growth.
(§5) Summary of the activity of the tested antimicrobial agents against the Gram-negative P. aeruginosa strains and the Gram-positive Staphylococcus spp. The number into brackets indicates the maximum number of strains tested. MIC: minimum inhibition concentration; MBEC: minimum biofilm eradication concentration; FIC: fractional inhibitory concentration.

[2] = system: P. aeruginosa ATCC BAA-47 (PAO1) biofilm cells; assay: MBEC against 24 h-old biofilm; assay type: cell-based, Pseudomonas aeruginosa; details: agent alone; FIG. 5
Experimental: as §1, §2, §3, §4
The assessment of the activity of NP108 and cysteamine against bacterial biofilms was carried out with 24 h-old biofilms and the activity of both compounds in combination was also determined. The activity of the antimicrobial agents against bacterial biofilms was determined by their activity against the biofilm cells and against the persister cells.

[3] = system: P. aeruginosa ATCC BAA-47 (PAO1) persister cells; assay: Relative viability of persister cells (SYTO9/PI live/dead fluorescence, microscopy); assay type: cell-based, Pseudomonas aeruginosa; details: agent alone; FIG. 6, FIG. 8
Experimental: (§6) Following transfer of the supernatant from the challenge plates, the biofilms were rinsed once with sterile PBS (lx) and 100 μl of BacLight live/dead fluorescent staining solution (Invitrogen, Paisley, UK) containing 4 μM SYTO9 and 20 μM propidium iodide (PI) in sterile PBS (lx) were added to the wells of the challenge plates. The plates were incubated at room temperature in the dark for 15 min and the fluorescence was read at 485(ex)/528(em) and 485(ex)/645(em) for SYTO9 and PI fluorescence, respectively on a fluorescence microtitre plate reader (BioTek Synergy HT, Winooski, USA) with the sensitivity set at 50 and bottom optics position was selected. Direct observation of the biofilms with an Axiovert 40 fluorescence microscope (Zeiss, Gottingen, Germany) allowed identifying the presence of live and dead bacteria and pictures of the biofilms were taken at 100 to 400-fold magnification.
(§7) The relative viability of persister cells was determined by the live/dead fluorescence measurements ratio and microscopic observations were used to confirm the presence or absence of live cells.
The activity of NP108 and cysteamine against the persister cells was assessed using a fluorescence staining method to determine the relative viability of the cells. The nucleic acid-binding fluorescent molecules used were SYTO9 and PI, which penetrate all bacterial cells (green fluorescence) and membrane-disrupted cells (red fluorescence), respectively.

[4] = system: P. aeruginosa strains (7) persister cells; assay: Persister cells in biofilms (live/dead staining), summary over strains; assay type: cell-based, Pseudomonas aeruginosa; details: agent alone
Experimental: as §6, §7, §5

[5] = system: P. aeruginosa strains (7) biofilm cells; assay type: cell-based, Pseudomonas aeruginosa; details: agent alone
Experimental: as §1, §2, §3, §4, §5

[6] = system: P. aeruginosa strains (7); assay: microbe, parasite or virus in culture; assay type: cell-based, Pseudomonas aeruginosa; details: agent alone; range over strains
Experimental: (§8) The bacterial inoculum was established by the dilution method from actively-growing cultures in Mueller-Hinton broth, standardized with 0.5 McFarland turbidity standard as described in the CLSI method M26-A.
(§9) To determine the prevention of biofilm formation, both the bacterial inoculum and the antimicrobial agents were added simultaneously to the plates. The plates were incubated at 37° C. for 24 h and the optical density was read at 625 nm on a microtitre plate reader (BioTek Powerwave XS, Winooski, USA). The MIC was obtained as the lowest concentration of antimicrobial showing total inhibition of bacterial growth.
(§10) The FIC corresponds to an interaction coefficient indicating whether the combination of antimicrobial agents is synergistic, additive, antagonist or neutral. The FIC is determined by comparing the activity of an agent in combination (MIC of agent A+agent B) with the activity of the agent alone (MIC of agent A or agent B) as follow (Singh et al., 2000):
(§11) FIC=MICA[combination]/MICA[alone]+MICB[combination]/MICB[alone]
(§12) Additive combinations of two antimicrobial agents are indicated by a FIC index of 1, whereas a FIC index <1 indicates synergistic combinations. Neutral combinations would give a FIC between 1 and 4, a FIC index higher than 4 indicates antagonist effects between the two antimicrobial agents.
as §5

[7] = system: Staphylococcus spp (4); assay: microbe, parasite or virus in culture; assay type: cell-based; details: agent alone; range over strains
Experimental: as §8, §9, §10, §11, §12, §5

[8] = system: S. aureus ATCC25923; details: ATCC25923, pH 7
[9] = system: P. aeruginosa ATCC BAA-47; details: for MBC at pH5.5, P. aeruginosa ATCCBAA-47 / MBC pH5.5, 320 mM NaCl, P. aeruginosa ATCCBAA-47: ATCC BAA-47, pH 5.5; for MBC following MIC at pH 7, P. aeruginosa ATCCBAA-47: ATCC BAA-47, pH 7
[10] = system: S. epidermidis ATCC12228; details: ATCC12228, pH 7
[11] = system: P. aeruginosa DSMZ1128; details: DSMZ1128, pH 7
[12] = system: S. epidermidis ATCC12228; assay type: cell-based, Staphylococcus epidermidis; details: ATCC12228, 24 h
Experimental: as §8, §9

[13] = system: S. aureus DSM 11729 (MRSA); details: for MBC at pH5.5, S. aureus 11729 / MBC pH5.5, 320 mM NaCl, S. aureus 11729: DSM 11729, pH 5.5; for MBC following MIC at pH 7, S. aureus DSMZ11729: DSM 11729, pH 7
[14] = system: P. aeruginosa DSMZ1299; details: DSMZ1299, pH 7
[15] = system: S. aureus ATCC25923; assay type: cell-based, Staphylococcus aureus; details: ATCC25923, 24 h
Experimental: as §8, §9

[16] = system: S. aureus DSM 11729 (MRSA); assay: microbe, parasite or virus in culture; assay type: cell-based, Staphylococcus aureus; details: DSM 11729, 24 h; for MIC pH5.5, 320 mM NaCl, S. aureus 11729 / MIC pH5.5, S. aureus 11729: pH 5.5
Experimental: as §8
as §9, with “growth. […]” for “growth.”
(§13) FIC=MICA[combination]/MICA[alone]+MICB[combination]/MICB[alone] […]
(§14) In order to assess for the prevention of biofilm formation by both Gram-positive and Gram-negative bacteria, the bacterial inoculum and antimicrobial agents were added simultaneously in the plates. The range of concentrations of antimicrobial agents was 0-500 μg/ml NP108 and 0-320 μg/ml cysteamine against the Gram-negative bacteria P. aeruginosa ATCC BAA-47 and 0-1000 μg/ml NP108 and 0-320 μg/ml cysteamine against the Gram-positive MRSA.

[17] = system: P. aeruginosa DSMZ1299; assay type: cell-based, Pseudomonas aeruginosa; details: for MIC at pH 7, P. aeruginosa D5MZ1299: DSMZ1299, 24 h
Experimental: as §8, §9

[18] = system: P. aeruginosa DSMZ1128; assay type: cell-based, Pseudomonas aeruginosa; details: DSMZ1128, 24 h
Experimental: as §8, §9

[19] = system: P. aeruginosa ATCC BAA-47; assay: microbe, parasite or virus in culture; assay type: cell-based, Pseudomonas aeruginosa; details: ATCC BAA-47, 24 h; for MIC pH5.5, 320 mM NaCl, P. aeruginosa ATCCBAA-47 / MIC pH5.5, P. aeruginosa ATCCBAA-47: pH 5.5
Experimental: as §8
as §9, with “growth. […]” for “growth.”
as §13, §14

Molecule	MBC following MIC at pH 7, S. aureus ATCC25923 [8]	MBC at pH5.5, P. aeruginosa ATCCBAA-47 [9]	MBC pH5.5, 320 mM NaCl, P. aeruginosa ATCCBAA-47 [9]	MBC following MIC at pH 7, P. aeruginosa ATCCBAA-47 [9]	MBC following MIC at pH 7, S. epidermidis ATCC12228 [10]	MBC following MIC at pH 7, P. aeruginosa DSMZ1128 [11]	MIC at pH 7, S. epidermidis ATCC12228 [12]	MBC at pH5.5, S. aureus 11729 [13]	MBC pH5.5, 320 mM NaCl, S. aureus 11729 [13]	MBC following MIC at pH 7, S. aureus DSMZ11729 [13]	MBC following MIC at pH 7, P. aeruginosa DSMZ1299 [14]	MIC at pH 7, S. aureus ATCC25923 [15]	MIC pH5.5, 320 mM NaCl, S. aureus 11729 [16]	MIC pH5.5, S. aureus 11729 [16]	MIC at pH 7, S. aureus DSMZ11729 [16]	MIC at pH 7, P. aeruginosa D5MZ1299 [17]	MIC at pH 7, P. aeruginosa DSMZ1128 [18]	MIC pH5.5, 320 mM NaCl, P. aeruginosa ATCCBAA-47 [19]	MIC pH5.5, P. aeruginosa ATCCBAA-47 [19]	MIC at pH 7, P. aeruginosa ATCCBAA-47 [19]	also measured
N=C(N)NCCC[C@@H](N)C(=O)N[C@H](CCCNC(=N)N)C(=O)N[C@H](CCCNC(=N)N)C(=O)N[C@H](CCCNC(=N)N)C(=O)N[C@H](CCCNC(=N)N)C(=O)N[C@H](CCCNC(=N)N)C(=O)N[C@H](CCCNC(=N)N)C(=O)N[C@H](CCCNC(=N)N)C(=O)N[C@H](CCCNC(=N)N)C(=O)N[C@H](CCCNC(=N)N)C(=O)N[C@H](CCCNC(=N)N)C(=O)N[C@H](CCCNC(=N)N)C(=O)N[C@H](CCCNC(=N)N)C(=O)O [NP339, dRdRdRdRdRdRdRdRdRdRdRdRdR]	–	–	–	–	–	–	–	–	–	–	–	–	–	–	–	–	–	–	–	–	MBEC against biofilms of 3 Staphylococcus species ([1]; FIG. 5, range over 3 species): 156 to 625 µg/mL; MBEC, Staphylococcus spp (4) ([1]; agent alone, biofilm cells): 156 to 625 µg/mL; MBEC, P. aeruginosa BAA-47 (PAO1); highest dose tested not sufficient to inhibit 100% of the biofilm cells [2]: > 5 mg/mL; concentration that inhibits the viability of P. aeruginosa BAA-47 (PAO1) persister cells [3]: 625 µg/mL; Persisters, active concentration, P. aeruginosa strains (7) [4]: 625 µg/mL; MBEC, P. aeruginosa strains (7) [5]: >5,000 μg/ml; MIC, P. aeruginosa strains (7) [6]: 62.5 µg/mL; MIC, Staphylococcus spp (4) [7]: 4 to 128 µg/mL
HHPRRKPRRPKRRHH [NP441, HHPRRKPRRPKRRHH]	>500 μg/ml	>500 μg/ml	>500 μg/ml	>500 μg/ml	>500 μg/ml	>500 μg/ml	>500 μg/ml	>500 μg/ml	>500 μg/ml	>500 μg/ml	>500 μg/ml	>500 μg/ml	>500 μg/ml	>500 μg/ml	>500 μg/ml	>500 μg/ml	>500 μg/ml	>500 μg/ml	>500 μg/ml	>500 μg/ml	Exp#3, P. aeruginosa DSMZ1299 (quantity not clearly headed) ([17]; Exp#3): >500 µg/mL
KKFPWRLRLRYGRR [NP445, KKFPWRLRLRYGRR]	>500 μg/ml	>500 μg/ml	>500 μg/ml	250 μg/ml	62.5 μg/ml	250 μg/ml	<7.8 μg/ml	>500 μg/ml	>500 μg/ml	>500 μg/ml	125 μg/ml	500 μg/ml	>500 μg/ml	>500 μg/ml	500 μg/ml	31.25 μg/ml	62.5 μg/ml	>500 μg/ml	>500 μg/ml	31.25 μg/ml	–
RRRFRFFFRFRRR [NP432, RRRFRFFFRFRRR]	250 μg/ml	125 μg/ml	>500 μg/ml	250 μg/ml	16 μg/ml	250 (2) μg/ml	<7.8 μg/ml	>500 μg/ml	>500 μg/ml	500 μg/ml	32 (2) μg/ml	31.25 μg/ml	>500 μg/ml	>500 μg/ml	62.5 μg/ml	15.6 μg/ml	62.5 μg/ml	125 μg/ml	125 μg/ml	15.6 μg/ml	–
